Data published in patent US11439148B2, “Pyrimidine derivatives” (SYNGENTA PARTICIPATIONS AG, priority 2017, dated 2022).
Several values for one entry are separate records, joined by “and”; a condition that tells them apart may be missing. Identical values can stand only once.

Tests used:
Type in all cases: in vivo
[1] = tested on: weed species BRAPL, COMBE, DIGSA, POLCO; assay: Adjuvant efficacy with mesotrione, glasshouse spray test, average over all species (BRAPL set); conditions: mesotrione SC, mean over 30 and 60 g/ha, adjuvant 0.2% v/v (none in No Adjuvant rows), 21 days, Test 4, average of BRAPL
Procedure: The efficacy of adjuvants 1-12 as an adjuvant for the herbicide mesotrione was tested in a glasshouse against four weed species sown into standard soil in pots and cultivated under controlled conditions in a glasshouse (at 24/18° C. day/night; 16 hours light; 65% humidity). Mesotrione was added to the spray tank as a standard SC (suspension concentrate) formulation.
The spray tests were also carried out using mesotrione in conjunction with adjuvants 1-12. The adjuvants were added to the spray solution at a rate of 0.2% v/v unless otherwise stated. All spray solutions also contained 10% w/w of iso-Propanol. The weed species and their BBCH growth stage at spraying were Brachiaria platyphylla (BRAPP; growth stage 13-14) or Brachiaria plantaginea (BRAPL; growth stage 13-14), Commelina benghalensis (COMBE; growth stage 13), Digitaria sanguinalis (DIGSA; growth stage 14), and Polygonum convolvulus (POLCO; growth stage 13-14). Each spray test was replicated three times.
The test plants were then grown in a glasshouse under controlled conditions (at 24/18° C. day/night; 16 hours light; 65% humidity) and watered twice a day. The efficacy of the herbicide was assessed visually and expressed as a percentage of the leaf area killed. Samples were assessed at a time period of 21 days following application. […]

[2] = tested on: Brachiaria plantaginea (BRAPL); assay: Adjuvant efficacy with mesotrione, glasshouse spray test; conditions: mesotrione SC, mean over 30 and 60 g/ha and 3 replicates; adjuvant 0.2% v/v (none in No Adjuvant rows); % leaf area killed, 21 days after application; Test 4
[3] = tested on: Commelina benghalensis (COMBE); assay: as above; conditions: mesotrione SC, mean over 30 and 60 g/ha and 3 replicates; adjuvant 0.2% v/v (none in No Adjuvant rows); % leaf area killed, 21 days after application; Tests 2 and 4

SMILES	Mean % Herbicidal Activity Average over all Species [1] [%]	Mean % Herbicidal Activity BRAPL [2] [%]	Mean % Herbicidal Activity COMBE [3]
CCCCCCCCCCCCCCCCOc1cc(OCCOCCOCCOCCOCCOCCOCCOCCOCCOCCOC)ncn1 [Adjuvant 8]	72	33	85% and 79%
CCCCCCCCCCCCOc1cc(OCCOCCOCCOCCOCCOCCOCCOC)ncn1 [Adjuvant 6]	–	–	83%
